Measurements taken from US9662362B2, “Composition and methods for clotting blood” (BYZMED LLC, priority 2009, dated 2017).

Tested on: nose bleeding
Test: Nose bleeding after abrasion of the nasal passage, checked by blowing nose and dabbing with tissue
Format: in vivo
Conditions: visual check
Excerpt: Nose bleeding was caused by creating an abrasion to the nasal passage of a subject by use of a cotton swab irritating the nasal passage. The subject then blew their nose vigorously. The first test was to create an abrasion and pinching the nostril with no application of any product. Bleeding was checked at multiple time points, including the after 30 seconds, 60 seconds and 90 seconds by blowing ones nose 3 times and dabbing the area with a tissue to see if there was continued perfuse bleeding. […] After 90 seconds, the first test was then concluded. Next, the effect of glycerin on nose bleeding was determined. Glycerin was applied to the nasal passage after bleeding had started. Bleeding was checked at multiple time points, including the after 30 seconds, 60 seconds and 90 seconds by blowing ones nose 3 times and dabbing the area with a tissue to see if there was continued perfuse bleeding. […] After 90 seconds, the second test was then concluded. The effect of the disclosed clotting agent that included the active ingredients of […] betonica, achillea millefolium, marrubium vulgare, and urtica dioica application on nose bleeding was then determined. Bleeding was checked at multiple time points, including after 30 seconds, 60 seconds and 90 seconds by the subject blowing their nose 3 times and dabbing the area with a tissue to see if there was continued perfuse bleeding. […] After 90 seconds, there was no bleeding in the nasal passage. This part of the test was then concluded.

Measured: bleeding in the nasal passage

OCC(O)CO [Glycerin]
bleeding continued: after 30 seconds, applied to nasal passage after bleeding had started | after 60 seconds (1 minute) | after 90 seconds
